In patent US20120309717A1, “COMPOUNDS, METHODS AND PHARMACEUTICAL COMPOSITIONS FOR INHIBITING PARP” (EISAI INC., priority 2003, published 2012):

Columns and labels:
[1] = tested on: murine melanoma cell line B16; assay: colony-formation assay, B16; assay type: cell-based
Protocol: (§1) The murine melanoma cell line B16 of C57BL/6J (H-2^b/H-2^b) origin and the lymphoma cell line L5178Y of DBA/2 (H-2^d/H-2^d) origin (ATCC, Manassas, Va.) were cultured in RPMI-1640 containing 10% fetal calf serum (Invitrogen, Milan, Italy), 2 mM L-glutamine, 100 units/ml penicillin and 100 μg/ml streptomycin (Flow Laboratories, Mc Lean, Va.), at 37° C. in a 5% CO2 humidified atmosphere. The human glioblastoma multiforme cell line SJGBM2 was cultured in DMEM (Invitrogen) supplemented with 10% fetal calf serum, 2 mM L-glutamine and antibiotics. SJGBM2 cell line was a kind gift from Dr. Peter J. Houghton (St. Jude Children's Research Hospital, Memphis, Tenn., USA).
(§2) […] For the experiments aimed at assessing the enhancing effect of 43 on TMZ-induced tumor growth inhibition, the methylating agent was added to cell cultures 15 min after 43 was used at concentrations non-toxic, and capable of abrogating PARP activity.
(§3) Long-term survival was analyzed by colony-formation assay. Exponentially growing melanoma and glioblastoma cells were seeded into 6-well plates at a density of 2×10^2/well and left to attach for 18 h; cells were then treated with the compounds under study and cultured to allow colony formation. After 10 days, colonies (defined as a cluster of >50 cells) were fixed and stained with rhodamine B basic violet 10 (ICN Biomedicals Inc., Aurora, Ohio, USA). Untreated or treated lymphoma cells were seeded at 1 cell/well in 96-well plates (flat-bottomed) and cultured. After 10 days, colonies were counted to determine cloning efficiency, using an optical microscope (Tentori 2001b).
(§4) Cell line chemosensitivity to TMZ, 43 or to the drug combination was evaluated in terms of IC50, i.e. the concentration of the drug expressed in μM, capable of inhibiting colony-forming ability by 50%. The IC50 was calculated on the regression line in which the number of colonies was plotted vs the drug concentration.

B16 melanoma [2] = assay: B16 melanoma growing at the CNS site (intracranial); assay type: in vivo, mouse
Protocol: (§5) The intracranial transplantation procedure was performed as previously described (Tentori 2002b). Cells (10^4 in 0.03 ml of RPMI-1640) were injected intra-cranially (ic) through the center-middle area of the frontal bone to a 2 mm depth, using a 0.1 ml glass microsyringe and a 27-gauge disposable needle.
(§6) Murine melanoma B16 or lymphoma L5178Y cells (10^4) were injected ic into male B6D2F1 (C57BL/6×DBA/2) mice. Human glioblastoma multiforme SJGBM2 cells (10^6) were injected ic into male athymic BALB/c mice (nu/nu genotype). Before tumor challenge, animals were anesthetized with ketamine (100 mg/kg) and xylazine (5 mg/kg) in 0.9% NaCl solution (10 ml/kg/ip).
(§7) Mice were monitored for mortality for 90 days. Median survival times (MST) were determined and the percentage of increase in lifespan (ILS) was calculated as: {[MST (days) of treated mice/MST (days) of control mice]−1}×100. Efficacy of treatments was evaluated by comparing survival curves between treated and control groups.
(§8) To assess the ability of different treatments to reduce tumor growth, histological examination of the brains was performed using additional animals that were not considered for the analysis of survival. Mice were sacrificed at different time points after tumor challenge, selected within the MST range of untreated tumor-bearing animals.

[3] = tested on: lymphoma cell line L5178Y; assay: colony-formation assay, L5178Y; assay type: cell-based, murine
Protocol: as §1, §2, §3, §4

[4] = tested on: human glioblastoma multiforme cell line SJGBM2; assay: colony-formation assay, SJGBM2; assay type: cell-based
Protocol: as §1
Cells were treated with 43 (0.1-20 μM) or with TMZ (1-250 μM). For the experiments aimed at assessing the enhancing effect of 43 on TMZ-induced tumor growth inhibition, the methylating agent was added to cell cultures 15 min after 43 was used at concentrations non-toxic, and capable of abrogating PARP activity.
as §3, §4

[5] = tested on: regional heart ischemia reperfusion; assay: regional heart ischemia reperfusion model (LAD occlusion); assay type: in vivo, rat; settings: iv bolus pre-ischemia plus iv bolus post-ischemia, 10 to 40 mg/kg; 30 min LAD occlusion, 2 hr reperfusion; male SD rats
Protocol: In the present study, we investigated the effects of 43 in the regional heart ischemia reperfusion model. In regional heart ischemia model, sodium thiopental-anaesthetized male SD rats were subjected to occlusion of LAD coronary artery for 30 min followed by 2 hr of reperfusion. The infarct size was quantified by TTC staining method and expressed as percent of area at risk.
The left anterior descending coronary artery of Sprague-Dawley rats was occluded for 30 minutes. This was followed by 90-120 minutes of blood reflow. PARP inhibitor compounds were given intraperitoneally (ip), 60 minutes pre-, or intravenously (iv), 15 or 5 minutes pre- and 25 minutes post-onset of ischemia. Infarct size was determined by TTC staining and the risk area was determined via blue dye injection.

B16 melanoma [6] = assay: B16 melanoma growing subcutaneously in B6D2F1 mice; assay type: in vivo, mouse; settings: 3 days
Protocol: 43 was administered 15 min before TMZ administration. Control mice were always injected with drug vehicles.
The efficacy of TMZ±43 treatment was also evaluated on melanoma growing subcutaneously (sc). For this purpose B16 cells (2.5×10^5) were inoculated sc in the flank of the animal. Tumors were measured with calipers and volume calculated according to the formula: [(width)^2×length]/2. Treatment was started 6 days after challenge, when the volume of tumor nodules reached 100-150 mm^3. Melanoma growth was monitored, by measuring tumor nodules every 3 days for 3 weeks.

[7] = crossing of the blood-brain barrier; assay type: in vivo; settings: systemic administration
[8] = drug toxicity / maximal tolerated dose in intact mice; settings: TMZ ip + 43 iv, for 3 days
Protocol: Drug toxicity was evaluated by treating intact mice (5/group) with the compounds under study, used as single agents or in combination. Control groups were treated with vehicles only. Body weight was measured three times weekly and survivals were recorded for 3 weeks after the last treatment. Toxicity was assessed on the basis of apparent drug-related deaths and net body weight loss [i.e., (initial weight−lowest weight/initial weight)×100%]. Death was considered drug-related when occurring within 7 days after the last treatment.
43 was dissolved in 70 mM PBS without potassium, and injected intravenously (iv) at different doses (40-200 mg/kg) to establish the maximal tolerated dose.
TMZ was dissolved in dimethyl-sulfoxide (40 mg/ml), diluted in saline (5 mg/ml) and administered ip at doses commonly used for in vivo preclinical studies (Friedman 1995; Middleton 2000; Kokkinakis 2001). Experiments were performed using different doses and schedules of TMZ+43 to determine the maximal tolerated dose of the drug combination. 43 was administered 15 min before TMZ administration. Control mice were always injected with drug vehicles.

[9] = tested on: SJGBM2 human glioblastoma multiforme; assay: orthotopic human glioblastoma multiforme xenograft in nude mice; assay type: in vivo, mouse; settings: with respect to controls or single agents
Protocol: as §5, §6, §7, §8

| SMILES | intrinsic growth inhibition as single agent ([1]; 1-25 μM 43, B16) | maximal enhancement of TMZ-induced growth inhibition ([1]; B16, 0.6 μM 43) | susceptibility to antiproliferative effect with respect to SJGBM2 and L5178Y ([1]; B16, 43 as single agent) | inhibition at 1.2 µM ([1]; Mus musculus, B16, 43 at 1.2 μM, read-out: growth inhibition with respect to control) | tumor infiltration in the brain (histology) (B16 melanoma [2]) | intrinsic growth inhibition as single agent ([3]; 1-25 μM 43, L5178Y) | maximal increase of TMZ growth inhibitory effect ([3]; L5178Y, 1.2 μM 43) | intrinsic growth inhibitory effect ([3]; L5178Y, 2.5 μM 43) | intrinsic growth inhibition as single agent ([4]; 1-25 μM 43, SJGBM2) | maximal increase of TMZ growth inhibitory effect ([4]; SJGBM2, 1.2 μM 43) | intrinsic growth inhibitory effect ([4]; SJGBM2, 2.5 μM 43) | cardiac protection (infarct size) [5] | tumor growth, 43 only (B16 melanoma [6]; 43 40 mg/kg/day iv, single agent) | enhancement of the antitumor effects of TMZ (B16 melanoma [6]; TMZ 100 mg/kg/day ip + 43 40 mg/kg/day iv, P <0.0001) | blood-brain barrier crossing [7] | highest tolerable dose of the drug combination [8] | survival of tumor bearing mice [9] |
| --- | --- | --- | --- | --- | --- | --- | --- | --- | --- | --- | --- | --- | --- | --- | --- | --- | --- |
| CN1CCN(Cc2ccc3c(c2)-c2n[nH]c(=O)c4cccc(c24)O3)CC1 [Compound 43, 10-(4-Methyl-piperazin-1-ylmethyl)-2H-7-oxa-1,2-diaza-benzo[de]anthracen-3-one] | some intrinsic growth inhibition | 10 fold | more susceptible | 18 ± 3% | pronounced and diffuse tumor infiltration | some intrinsic growth inhibition | ~10 fold | intrinsic growth inhibitory effect | some intrinsic growth inhibition | ~4 fold | intrinsic growth inhibitory effect | significant cardiac protection | did not affect tumor growth | significantly enhanced | capable of crossing the blood-brain barrier |  |  |
| Cn1nnc2c(C(N)=O)ncn2c1=O [TMZ, temozolimide] |  |  |  |  | limited but multifocal infiltration |  |  |  |  |  |  |  |  |  |  | 100 mg/kg/day | completely ineffective |
